# US11926598B1, “1-(4-nitrobenzylideneamino)-5-phenylimidazolidine-2,4-dione as an antimicrobial compound” (KING FAISAL UNIVERSITY, priority 2023, dated 2024)
# Key:
# Assay type in all cases: cell-based
# Escherichia coli = test: Agar plate disc-diffusion, antibacterial inhibition zone; conditions: Escherichia coli (Gram negative)
# Method: (§1) The agar plate disc-diffusion method was applied. […] The discs were then placed onto the surface of agar plates (nutrient agar for bacteria and Sabouraud's dextrose agar for fungi) seeded with the test organism. Each plate contained 15 mL of the agar medium, previously seeded with 0.2 mL of the broth culture of each organism pregrown for 18 hours. The plates were incubated at 37° C. for 48 hours, and 72 hours for fungi. The inhibition zones was measured in millimeter. Discs impregnated with DMSO were used as a control, and its inhibition zone was subtracted from the tested compound actual inhibition zone.
# (§2) The results of the antimicrobial testing can be observed in Tables 1 and 2, below, with ciprofloxacin serving as a reference.
# Staphylococcus aureus = test: as above; conditions: Staphylococcus aureus (Gram positive)
# Method: as §1, §2
# Pseudomonas aeruginosa = test: as above; conditions: Pseudomonas aeruginosa (Gram negative)
# Method: as §1, §2
# Bacillus Cereus = test: as above; conditions: Bacillus Cereus (Gram positive)
# Method: as §1, §2
# [1] = test system: Chrysosporium keratinophilum; test: Agar plate disc-diffusion, antifungal inhibition zone
# Method: as §1, §2
# Aspergillus flavus = test: as above
# Method: as §1, §2
# [2] = A = concentration of comp. = 10,000 μL
# [3] = B = concentration of comp. = 30.000 μL
# [4] = C = concentration of comp. = 50,000 μL
SMILES,inhibition zone (Escherichia coli; [2]),inhibition zone (Escherichia coli; [3]),inhibition zone (Escherichia coli; [4]),inhibition zone (Staphylococcus aureus; [2]),inhibition zone (Staphylococcus aureus; [3]),inhibition zone (Staphylococcus aureus; [4]),inhibition zone (Pseudomonas aeruginosa; [2]),inhibition zone (Pseudomonas aeruginosa; [3]),inhibition zone (Pseudomonas aeruginosa; [4]),inhibition zone (Bacillus Cereus; [2]),inhibition zone (Bacillus Cereus; [3]),inhibition zone (Bacillus Cereus; [4]),"inhibition zone [1, 2]","inhibition zone [1, 3]","inhibition zone [1, 4]",inhibition zone (Aspergillus flavus; [2]),inhibition zone (Aspergillus flavus; [3]),inhibition zone (Aspergillus flavus; [4])
"O=C(O)c1cn(C2CC2)c2cc(N3CCNCC3)c(F)cc2c1=O [Cip., ciprofloxacin]",30 millimeter,39 millimeter,60 millimeter,43 millimeter,44 millimeter,53 millimeter,29 millimeter,30 millimeter,53 millimeter,29 millimeter,30 millimeter,42 millimeter,29 millimeter,30 millimeter,53 millimeter,29 millimeter,30 millimeter,42 millimeter
"O=C1NC(=O)N(N=Cc2ccc([N+](=O)[O-])cc2)C1c1ccccc1 (stereo not drawn) [Compound 4, 1-(4-nitrobenzylideneamino)-5-phenylimidazolidine-2,4-dione]",30 millimeter,35 millimeter,51 millimeter,19 millimeter,24 millimeter,30 millimeter,25 millimeter,27 millimeter,40 millimeter,25 millimeter,27 millimeter,37 millimeter,26 millimeter,28 millimeter,50 millimeter,19 millimeter,24 millimeter,35 millimeter
